Reference: PMC8165160, “Substrate Specificities and Inhibition Pattern of the Solute Carrier Family 10 Members NTCP, ASBT and SOAT” (Frontiers in Molecular Biosciences, 2021)
Where two headings read alike, the source gives them in different places.

Assays:
NTCP [1] = target: T1, NTCP (Homo sapiens, UniProt Q14973); experiment: Substrate screening: sodium-dependent uptake of radiolabeled compounds in NTCP-HEK293 cells; format: cell-based; design: The full-length open reading frames of NTCP, ASBT, and SOAT were cloned; expressed in transfected cells; host or cells: Flp-In T-REX HEK293 (NTCP-HEK293), tetracycline-induced; conditions: NTCP-HEK293, vs sodium-free control
T1 sequence (Q14973 1-349): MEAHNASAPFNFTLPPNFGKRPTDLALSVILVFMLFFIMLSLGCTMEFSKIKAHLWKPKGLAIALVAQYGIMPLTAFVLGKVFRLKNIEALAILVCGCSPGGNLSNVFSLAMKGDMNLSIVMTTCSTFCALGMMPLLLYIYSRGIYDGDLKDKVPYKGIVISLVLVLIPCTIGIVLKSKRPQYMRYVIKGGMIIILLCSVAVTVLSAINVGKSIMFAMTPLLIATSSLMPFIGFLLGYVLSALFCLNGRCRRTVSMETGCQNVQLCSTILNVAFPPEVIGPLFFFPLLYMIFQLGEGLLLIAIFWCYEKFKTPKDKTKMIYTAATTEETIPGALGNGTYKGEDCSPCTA
Method: (§1) Stably SLC10 transporter transfected NTCP-HEK293, ASBT-HEK293, SOAT-HEK293 cells and the HEK293-FlpIn maternal cell line were seeded on 24-well plates (if not stated otherwise for individual assays). Well plates were coated with poly-D-lysine prior to seeding of 125,000 cells per well. Cells were grown with 1 ml of standard medium per well with or without tetracycline ([…]) for 72 h to induce carrier expression before respective assays were started. HEK293-FlpIn cells were cultivated with standard medium and served as control.
(§2) Uptake experiments were initiated by replacing the preincubation buffer by 500 μL transport buffer containing the radiolabeled test compound and were performed at 37°C. Transport was terminated by removing the transport buffer and washing five-times with ice-cold PBS. Cell monolayers were lysed in 1 N NaOH with 0.1% SDS and the cell-associated radioactivity was determined by liquid scintillation counting.
(§3) FIGURE 1 Comparative substrate screening for bile acids and sulfated steroids in NTCP-, ASBT-, and SOAT-HEK293 cells. Transport assays were performed with the indicated substrates in NTCP-HEK293, ABST-HEK293, SOAT-HEK293, and HEK293-FlpIn cells. Cells were washed and equilibrated with Na^+-containing transport buffer (filled bars) or with Na^+-free transport buffer (open bars) at 37°C. For uptake, cells were incubated with radiolabeled steroid compounds at a final concentration of 200 nM in Na^+-containing or Na^+-free transport buffer for 10 min. Radiolabeled bile acids were used at 1 µM concentrations and transport was analyzed over 30 min. HEK293-FlpIn cells served as additional controls. After the indicated time intervals, cells were washed with ice-cold PBS, lysed and subjected to liquid scintillation counting. […] 3-OH, trihydroxylated BAs; 2-OH, dihydroxylated BAs; 1-OH, monohydroxylated BAs.

ASBT = target: T2, ASBT (Homo sapiens, UniProt Q12908); experiment: Substrate screening: sodium-dependent uptake of radiolabeled compounds in ASBT-HEK293 cells; format: cell-based; conditions: radiolabeled bile acids 1 µM, 30 min, ASBT-HEK293, vs sodium-free control
T2 construct: The full-length open reading frames of NTCP, ASBT, and SOAT were cloned; expressed in transfected cells; host or cells: Flp-In T-REX HEK293 (ASBT-HEK293), tetracycline-induced
T2 sequence (Q12908 1-348): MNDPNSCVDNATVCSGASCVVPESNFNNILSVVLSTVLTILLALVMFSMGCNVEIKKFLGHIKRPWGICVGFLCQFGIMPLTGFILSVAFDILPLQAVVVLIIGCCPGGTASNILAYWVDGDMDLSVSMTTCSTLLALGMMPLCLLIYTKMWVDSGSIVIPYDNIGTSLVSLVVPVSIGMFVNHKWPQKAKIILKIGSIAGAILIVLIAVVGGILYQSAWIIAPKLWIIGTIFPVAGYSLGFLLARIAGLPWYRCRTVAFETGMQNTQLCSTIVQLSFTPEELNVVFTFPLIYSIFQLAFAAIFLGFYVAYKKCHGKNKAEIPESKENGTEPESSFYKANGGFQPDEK
Method: as §1, §2, §3

NTCP [2] = target: T1, NTCP; experiment: Transport inhibition in NTCP-HEK293 cells; conditions: NTCP-HEK293
[3] = radiolabeled bile acids 1 µM, 30 min

| Compound | Transport activity grading NTCP (mean uptake) (NTCP [1]; [3]) | Transport activity grading ASBT (mean uptake) (ASBT) | also measured |
| --- | --- | --- | --- |
| C[C@H](CCC(=O)O)[C@H]1CC[C@H]2[C@@H]3[C@H](O)C[C@@H]4C[C@H](O)CC[C@]4(C)[C@H]3CC[C@]12C [Chenodeoxycholic acid] | + (Mean uptake of bile acids “+” for values below 500) | + (Mean uptake of bile acids “+” for values below 500) |  |
| C[C@H](CCC(=O)O)[C@H]1CC[C@H]2[C@@H]3[C@H](O)C[C@@H]4C[C@H](O)CC[C@]4(C)[C@H]3C[C@H](O)[C@]12C [Cholic acid] | ++ (“++” for values between 500 and 1000) | + (Mean uptake of bile acids “+” for values below 500) |  |
| C[C@H](CCC(=O)O)[C@H]1CC[C@H]2[C@@H]3CC[C@@H]4C[C@H](O)CC[C@]4(C)[C@H]3C[C@H](O)[C@]12C [Deoxycholic acid] | + (Mean uptake of bile acids “+” for values below 500) | + (Mean uptake of bile acids “+” for values below 500) |  |
| C[C@]12CC[C@@H]3c4ccc(O[C@@H]5O[C@H](C(=O)O)[C@@H](O)[C@H](O)[C@H]5O)cc4CC[C@H]3[C@@H]1CCC2=O [Estrone-3β-D-glucuronide] |  |  | Transport activity grading NTCP (mean uptake) (NTCP [1]; radiolabeled steroid compounds 200 nM, 10 min): + (Mean uptake “+” for values below 10) |
| CC(CCC(=O)NCC(=O)O)C1CCC2C3C(O)CC4CC(O)CCC4(C)C3CCC12C (stereo not shown) [Glycochenodeoxycholic acid] | +++ (“+++” for values above 1000 pmol/mg protein/30 min) | ++ (“++” for values between 500 and 1000) |  |
| C[C@H](CCC(=O)NCC(=O)O)[C@H]1CC[C@H]2[C@@H]3[C@H](O)C[C@@H]4C[C@H](O)CC[C@]4(C)[C@H]3C[C@H](O)[C@]12C [Glycocholic acid] | +++ (“+++” for values above 1000 pmol/mg protein/30 min) | ++ (“++” for values between 500 and 1000) |  |
| CC(CCC(=O)NCC(=O)O)C1CCC2C3CCC4CC(O)CCC4(C)C3CC(O)C12C (stereo not shown) [Glycodeoxycholic acid] | +++ (“+++” for values above 1000 pmol/mg protein/30 min) | ++ (“++” for values between 500 and 1000) |  |
| C[C@H](CCC(=O)NCC(=O)O)[C@H]1CC[C@H]2[C@@H]3[C@@H](O)C[C@@H]4C[C@H](O)CC[C@]4(C)[C@H]3CC[C@]12C [Glycoursodeoxycholic acid] | +++ (“+++” for values above 1000 pmol/mg protein/30 min) | ++ (“++” for values between 500 and 1000) |  |
| C[C@H](CCC(=O)NCCS(=O)(=O)O)[C@H]1CC[C@H]2[C@@H]3[C@H](O)C[C@@H]4C[C@H](O)CC[C@]4(C)[C@H]3CC[C@]12C [Taurochenodeoxycholic acid] | +++ (“+++” for values above 1000 pmol/mg protein/30 min) | ++ (“++” for values between 500 and 1000) |  |
| C[C@H](CCC(=O)NCCS(=O)(=O)O)[C@H]1CC[C@H]2[C@@H]3CC[C@@H]4C[C@H](O)CC[C@]4(C)[C@H]3C[C@H](O)[C@]12C [Taurodeoxycholic acid] | +++ (“+++” for values above 1000 pmol/mg protein/30 min) | ++ (“++” for values between 500 and 1000) |  |
| C[C@H](CCC(=O)NCCS(=O)(=O)O)[C@H]1CC[C@H]2[C@@H]3[C@@H](O)C[C@@H]4C[C@H](O)CC[C@]4(C)[C@H]3CC[C@]12C [Tauroursodeoxycholic acid] | +++ (“+++” for values above 1000 pmol/mg protein/30 min) | ++ (“++” for values between 500 and 1000) |  |
| C[C@H](CCC(=O)O)[C@H]1CC[C@H]2[C@@H]3[C@@H](O)C[C@@H]4C[C@H](O)CC[C@]4(C)[C@H]3CC[C@]12C [Ursodeoxycholic acid] | + (Mean uptake of bile acids “+” for values below 500) |  |  |
| myr-preS1: 2–48 N-terminal amino acids of the myristoylated preS1 domain of the HBV/HDV large envelope protein (GQNLSTSNPLGFFPDHQLDPAFRANTANPDWDFNPNKDTWPDANKVG; N-terminal myristoyl on Gly2) |  |  | IC50 (NTCP [2]; read-out: IC50 for inhibition of [3H]DHEAS transport via NTCP, 200 nM DHEAS): 167 nM; IC50 (NTCP [2]; read-out: IC50 for inhibition of [3H]TC transport via NTCP, 200 nM TC): 182 nM; IC50 (NTCP [2]; read-out: IC50 for inhibition of [3H]TLC transport via NTCP, 200 nM TLC): 316 nM |
